Measurements reported in patent US9012454B2, “Sexual dysfunction” (Mayo Foundation for Medical Education and Research, priority 2005, dated 2015).

Columns and labels:
[1] = system: LZ+ MYPT1 isoform; assay: Western blot of relative LZ+ MYPT1 isoform expression in vascular smooth muscle after LAD ligation; type: in vivo, rat; settings: for LZ+ MYPT1 isoform expression in aorta (in words) / LZ+ MYPT1 isoform expression in iliac artery (in words): captopril 2-8 weeks, prazosin 4 weeks
[2] = system: surgical infarct model of CHF; assay: Transthoracic echocardiography in surgical infarct (LAD ligation) model of CHF; type: in vivo, rat; settings: for fractional shortening (FS): 4 weeks after surgery, captopril 100 mg/kg/day or prazosin 2 mg/kg/day, mean±SEM
Method: Adult male Sprague-Dawley rats (Harlan, Indianapolis, Ind.) weighing 400-450 grams were put under general anesthesia by intraperitoneal injection with a mixture (3:3:2) of ketamine (100 mg/mL), xylazine (20 mg/mL), and acepromazine (10 mg/mL). After intubation, the rats were ventilated continuously (room air) using a small animal ventilator (model 683, Harvard Apparatus, Holliston, Mass.). A left lateral thoracotomy incision was made along the 5th intercostal space. After the pericardium was opened, the heart was exteriorized using a retention suture placed at the apex. The left anterior descending coronary artery (LAD) was ligated twice using 6-0 prolene suture (Ethicon, Piscataway, N.J.). After chest closure with running 3-0 vicryl suture (Ethicon), rats were placed in a recovery chamber with a heating pad and a warming light.
Beginning on post-operative day one, rats were allowed to drink ad libitum. One group was fed water with captopril (2 g/L), and another group was fed water alone (Pfeffer et al., Circ. Res., 57:84-95 (1985)). The rats were fed a standard diet of Teklad rodent feed (Harlan) ad libitum and kept on a 12:12 hour light-dark cycle. In both the captopril- and the placebo-treated group, the rats were sacrificed at designated time intervals of 2 weeks and then 4, 6, and 8 weeks after surgery. On average, the rats drank approximately 20 mL of water daily, which corresponded to a dose of 100 mg/kg/day of captopril.
All rats in the placebo- and captopril-treated groups underwent transthoracic echocardiography (Acuson Sequoia C256® Echocardiography System, Siemens Medical Solutions USA, Inc., Malvern, Pa.) at baseline prior to LAD ligation and at 2, 4, 6, and 8 weeks after LAD ligation using 2-D digital loop imaging under conscious sedation with vaporized isoflurane as described previously (Karim et al., Circ. Res., 95:612-18 (2004); Morgan et al., Am. J. Physiol. Heart Circ. Physiol., 287:H2049-H2053 (2004)). […] Both parasternal long and short axis views were obtained using a 13-MHz linear array transducer. Digital calipers were used to measure end systolic dimension (ESD) and end diastolic dimension (EDD). Cardiac function was estimated using fractional shortening (FS) obtained from the EDD and ESD in the parasternal long axis view and calculated as FS=((EDD−ESD)/EDD)×100%.
The echocardiographic data were reported as mean±SEM.

Structure (SMILES) | LZ+ MYPT1 isoform expression in aorta (in words) ([1]; infarct rats, aorta) | LZ+ MYPT1 isoform expression in iliac artery (in words) ([1]; infarct rats, iliac artery) | LZ+ MYPT1 isoform expression in portal vein (in words) ([1]; infarct rats, portal vein, all time intervals) | effect on fractional shortening / left ventricular function (LVF) ([2]; infarct rats versus placebo, captopril as early as 2 weeks post-infarction, prazosin at 4 weeks) | fractional shortening (FS) ([2]; infarct rats) [%] | end systolic dimension (ESD) compared to placebo ([2]; infarct rats, all time-points (2, 4, 6, 8 weeks), P<0.05) | LZ+ MYPT1 isoform expression in the aorta (fall versus uninfarcted control) ([1]; aorta, 4 weeks after infarction, placebo 44±1%, P<0.05) [%] | LZ+ MYPT1 isoform expression in the iliac artery (fall versus uninfarcted control) ([1]; iliac artery, 4 weeks after infarction, placebo 52±2%, P=0.87) [%]
C[C@H](CS)C(=O)N1CCC[C@H]1C(=O)O [captopril] | preserved at the uninfarcted control level | preserved at the level of the uninfarcted control smooth muscle | remained low | attenuated the fall in FS and improved left ventricular function | 45±1 | reduced the ESD | – | –
COc1cc2nc(N3CCN(C(=O)c4ccco4)CC3)nc(N)c2cc1OC [prazosin] | did not prevent the fall | did not prevent the fall | – | – | 38±2 | – | 68±1 | 54±2
